Test results from US6432993B1, “Substituted fused heterocyclic compound” (Sankyo Company, Limited, priority 1997, dated 2002).
Values after ≈ are worked out from the molar mass of the structure shown. Where a name gives a salt, the structure may show the parent alone.

Tests used:
[1] = system: lipid peroxide production, rat hepatic microsome; test: Anti-lipid-peroxide action: inhibition of lipid peroxide production in rat hepatic microsome; assay type: biochemical; conditions: Wister rat hepatic microsome, ferrous sulfate/cysteine, 37° C. 30 minutes, thiobarbituric acid absorbance 535 nm
Description: Anti-lipid-peroxide Action
The inhibitory effect of the invention compound against the production of lipid peroxide was conducted using rat hepatic microsome.
To 400 μl of a 1:2 mixture of a buffer [a 0.1M aqueous tris(hydroxymethyl)aminomethane solution adjusted to pH 7.4 by hydrochloric acid] and a 0.15M aqueous potassium chloride solution were added 5 μl of a solution of a predetermined concentration of the test compound in dimethyl sulfoxide, and 100 μl of hepatic microsome prepared from Wister rat (10 week old), followed by stirring at 37° C. for 5 minutes. To initiate the reaction of said mixture, 10 μl of a 1:1 mixed solution of a 0.5 mM aqueous solution of ferrous sulfate 7 hydrate and a 50 mM aqueous cysteine solution was added and the resulting mixture was stirred at 37° C. for 30 minutes. 1 ml of a 10% aqueous solution of trichloroacetic acid was added to the reaction mixture to terminate the reaction. The reaction mixture was centrifuged at 3000 rpm at 5° C. for 10 minutes and the supernatant was separated. To 1.0 ml of the supernatant, 1.0 ml of 50% aqueous acetic acid containing 0.67% of thiobarbituric acid was added and the mixture was boiled at 100° C. for 15 minutes. After the resulting mixture was allowed to stand at room temperature for 15 minutes, the absorbance at the wavelength of 535 nm was measured. From the absorbance of the control measured without the test compound and that of the test compounds of a predetermined concentration, an inhibition rate (%) was determined and the 50% inhibition concentration of the test compound against lipid peroxide was determined.

[2] = molecular target: T1, 5-lipoxygenase (Cavia porcellus, UniProt A0A286X958); test: 5-Lipoxygenase inhibitory action (5-HETE formation, guinea pig polymorphonuclear leukocyte enzyme); assay type: biochemical; conditions: 25° C. 5 minutes, 5-HETE by HPLC, read-out: IC50 (50% inhibition concentration against 5-lipoxygenase) (converted)
T1 sequence (A0A286X958 1-674): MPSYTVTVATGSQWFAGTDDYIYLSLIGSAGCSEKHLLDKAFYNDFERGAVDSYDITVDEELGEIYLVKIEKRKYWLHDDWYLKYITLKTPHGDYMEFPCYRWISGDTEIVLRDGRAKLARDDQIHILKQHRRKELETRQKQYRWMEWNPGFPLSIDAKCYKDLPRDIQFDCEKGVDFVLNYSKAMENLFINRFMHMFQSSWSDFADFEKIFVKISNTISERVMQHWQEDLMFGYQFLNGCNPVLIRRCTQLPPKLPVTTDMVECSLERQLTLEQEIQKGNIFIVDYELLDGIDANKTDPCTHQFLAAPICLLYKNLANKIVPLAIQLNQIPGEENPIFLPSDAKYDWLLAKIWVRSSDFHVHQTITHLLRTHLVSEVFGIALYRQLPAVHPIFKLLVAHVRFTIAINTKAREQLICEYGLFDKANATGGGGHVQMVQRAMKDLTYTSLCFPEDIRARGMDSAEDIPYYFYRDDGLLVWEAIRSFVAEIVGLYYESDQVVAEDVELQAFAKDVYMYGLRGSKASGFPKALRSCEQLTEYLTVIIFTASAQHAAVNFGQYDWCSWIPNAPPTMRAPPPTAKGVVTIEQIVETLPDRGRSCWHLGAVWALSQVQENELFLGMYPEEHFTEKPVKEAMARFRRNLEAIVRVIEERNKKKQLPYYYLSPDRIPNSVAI
Description: 5-Lipoxygenase Inhibitory Action
Into 5 μl of a solution of the test compound in dimethylsulfoxide, 750 μl of a 1/15M phosphate buffer (pH 7.4) which was prepared by dissolving a wrapper of phosphate buffer powder (Yatron) in 10 ml of water, 40 μl of a 30 mM aqueous calcium chloride solution, 50 μl of a 20 mM aqueous GSH (glutathione, reduced form) solution, 50 μl of a 40 mM aqueous ATP (adenosine-5-triphosphate) solution and 100 μl of guinea pig polymorphonuclear leukocyte enzyme were added, followed by stirring at 25° C. for 5 minutes. To initiate the reaction, 5 μl of […] (10 mg/ml ethanol) were added to said mixture and the mixture was stirred at 25° C. for 5 minutes. 50 μl of 2N hydrochloric acid were added to the reaction mixture to terminate the reaction. 2.0 ml of ethyl acetate containing an internal standard substance (internal standard substance: 2 μg/ml of isoamyl paraben) were then added to the reaction mixture. The resulting mixture was extracted for 1 minute by a mixer, followed by centrifugal separation at 3000 rpm for 5 minutes. The ethyl acetate layer was separated, evaporated to dryness under reduced pressure and then dissolved in 200 μl of acetonitrile. By high-performance liquid chromatography, the amount of 5-HETE formed was determined. From the determination of 5-HETE of the control without the test compounds and that of the test compounds, an inhibition rate (%) was found and the 50% inhibition concentration of the test compounds against 5-lipoxygenase was determined.

[3] = system: KK mice which developed diabetes; test: Hypoglycemic action in diabetic KK mice; assay type: in vivo; conditions: powdery food containing 0.01% test compound for three days, plasma glucose vs control; for inhibition in vivo at 0.01 % in diet: Mus musculus, po, 72 h, read-out: Blood sugar lowering rate (%)
Description: The blood sample was collected from the caudal vein of each of KK mice (4-5 month old) which developed diabetes and its blood sugar level was measured. The mice were then classified into groups (4 mice per group) so that they would be equal in the average of the blood sugar levels of the mice. For three days, powdery food (F-1, produced by Funabashi Farm) adjusted to contain the test compound in an amount of 0.01% was administered to mice. The mouse group to which the test compound was administered refers to “the medicine administered group”, while that to which the powdery food free of the test compound was administered refers to “the control”. After three days, the blood sample was collected from the caudal vein of each of the mice and the glucose concentration in the plasma obtained by centrifugal separation was measured by a glucose analyzer (“Glucoroder”, A&T Inc.). The blood-sugar lowering rate was calculated from the following equation:
Blood sugar lowering rate (%)=(average blood sugar level of the control−average blood sugar level of the medicine administered group)×100/the blood sugar level of the control

| Structure (SMILES) | IC50 (50% inhibition concentration against lipid peroxide) [1] [µg/mL] | inhibition in vivo at 0.01 % in diet [3] [%] | also measured |
| --- | --- | --- | --- |
| Cc1cc(O)ccc1Oc1ccc2nc(COc3ccc(CC4SC(=O)NC4=O)cc3)n(C)c2c1.Cl (stereo not shown) | – | – | melting point: 165 to 168 °C |
| Cc1cc(Oc2ccc3nc(COc4ccc(CC5SC(=O)NC5=O)cc4)n(C)c3n2)c(C)c(C)c1O (stereo not shown) [Example 1-2a, 5-{4-[5-(4-Hydroxy-2,3,5-trimethylphenoxy)-3-methyl-3H-imidazo[4,5-b]pyridin-2-ylmethoxy]benzyl}thiazolidine-2,4-dione] | 0.97 (≈ 1.87 µM) | – | IC50 [2]: 1140 nM |
| Cc1cc(Oc2ccc3nc(COc4ccc(CC5SC(=O)NC5=O)cc4)n(C)c3n2)c(C)c(C)c1O (stereo not shown) [Example 1-2b, 5-{4-[5-(4-Hydroxy-2,3,5-trimethylphenoxy)-3-methyl-3H-imidazo[4,5-b]pyridin-2-ylmethoxy]benzyl}thiazolidine-2,4-dione hydrochloride] | – | 48.1 | – |
| Cc1cc(Oc2ccc3nc(COc4ccc(CC5SC(=O)NC5=O)cc4)n(C)c3c2)c(C)c(C)c1O (stereo not shown) [Example 2-2a, 5-{4-[6-(4-Hydroxy-2,3,5-trimethylphenoxy)-1-methyl-1H-benzimidazol-2-ylmethoxy]benzyl}thiazolidine-2,4-dione] | 0.54 (≈ 1.04 µM) | – | IC50 [2]: 193 nM |
| Cc1cc(Oc2ccc3nc(COc4ccc(CC5SC(=O)NC5=O)cc4)n(C)c3c2)c(C)c(C)c1O (stereo not shown) [Example 2-2b, 5-{4-[6-(4-Hydroxy-2,3,5-trimethylphenoxy)-1-methyl-1H-benzimidazol-2-ylmethoxy]benzyl}thiazolidine-2,4-dione hydrochloride] | – | 49.2 | – |
| Cn1c(COc2ccc(CC3SC(=O)NC3=O)cc2)nc2ccc(Oc3ccc(O)cc3)cc21 (stereo not shown) [Example 3-2, 5-{4-[6-(4-Hydroxyphenoxy)-1-methyl-1H-benzimidazol-2-ylmethoxy]benzyl}thiazolidine-2,4-dione] | – | 60.1 | – |
| Cc1cc(Oc2ccc3nc(COc4ccc(CC5SC(=O)NC5=O)cc4)n(C)c3c2)cc(C)c1O (stereo not shown) [Example 4-2a, 5-{4-[6-(4-Hydroxy-3,5-dimethylphenoxy)-1-methyl-1H-benzimidazol-2-ylmethoxy]benzyl}thiazolidine-2,4-dione] | 0.83 (≈ 1.65 µM) | 67.5 | IC50 [2]: 397 nM |
| Cc1cc(Oc2ccc3nc(COc4ccc(CC5SC(=O)NC5=O)cc4)n(C)c3c2)c(Cl)c(C)c1O.Cl (stereo not shown) [Example 5b, 5-{4-[6-(2-Chloro-4-hydroxy-3,5-dimethylphenoxy)-1-methyl-1H-benzimidazol-2-ylmethoxy]benzyl}thiazolidine-2,4-dione hydrochloride] | 1.3 | – | IC50 [2]: 923 nM |
| Cn1c(COc2ccc(CC3SC(=O)NC3=O)cc2)nc2ccc(Oc3ccccn3)cc21 (stereo not shown) [Example 6-2, 5-{4-[6-(Pyridin-2-yloxy)-1-methyl-1H-benzimidazol-2-ylmethoxy]benzyl}thiazolidine-2,4-dione] | – | 62.6 | – |
| Cl.Cn1c(COc2ccc(CC3SC(=O)NC3=O)cc2)nc2ccc(Sc3cc(C(C)(C)C)c(O)c(C(C)(C)C)c3)cc21.Cn1c(COc2ccc(CC3SC(=O)NC3=O)cc2)nc2ccc(Sc3cc(C(C)(C)C)c(O)c(C(C)(C)C)c3)cc21 (stereo not shown) [Example 7-2a, 5-{4-[6-(3,5-Di-t-butyl-4-hydroxyphenylthio)-1-methyl-1H-benzimidazol-2-ylmethoxy]benzyl}thiazolidine-2,4-dione 1/2 hydrochloride] | 0.65 | – | Blood sugar lowering rate (%) [3]: 71.7% |
| Cc1cc(Oc2ccc3nc(COc4ccc(CC5SC(=O)NC5=O)cc4)n(C)c3c2)cc(C)c1N.Cl.Cl (stereo not shown) [Example 8-2b, 5-{4-[6-(4-Amino-3,5-dimethylphenoxy)-1-methyl-1H-benzimidazol-2-ylmethoxy]benzyl}thiazolidine-2,4-dione dihydrochloride] | 3.2 | – | – |
| Cn1c(COc2ccc(CC3SC(=O)NC3=O)cc2)nc2ccc(Sc3ccccn3)cc21 (stereo not shown) [Example 13-2b, 5-{4-[1-Methyl-6-(pyridin-2-ylthio)-1H-benzimidazole-2-ylmethoxy]benzyl}thiazolidine-2,4-dione dihydrochloride] | – | 68.1 | – |
| Cn1c(COc2ccc(CC3SC(=O)NC3=O)cc2)nc2ccc(Oc3ccc(-n4ccnc4)cc3)cc21 (stereo not shown) [Example 19-2, 5-{4-(6-[4-(Imidazole-1-yl)phenoxy]-1-methyl-1H-benzimidazole-2-ylmethoxy)benzyl}thiazolidine-2,4-dione dihydrochloride] | – | 66.8 | – |
| Cc1ccc(Sc2ccc3nc(COc4ccc(CC5SC(=O)NC5=O)cc4)n(C)c3c2)cc1 (stereo not shown) [Example 34-2b, 5-{4-[1-Methyl-6-(4-methylthiophenoxy)-1H-benzimidazole-2-ylmethoxy]benzyl}thiazolidine-2,4-dione hydrochloride] | – | 71.2 | – |
| Cn1c(COc2ccc(CC3SC(=O)NC3=O)cc2)nc2ccc(Oc3ccc(C#N)cc3)cc21 (stereo not shown) [Example 40, 5-{4-[6-(4-Cyanophenoxy)-1-methyl-1H-benzimidazole-2-ylmethoxy]benzyl}thiazolidine-2,4-dione hydrochloride] | – | 66.4 | – |
| Cn1c(COc2ccc(CC3SC(=O)NC3=O)cc2)nc2ccc(Oc3ccc(NC(=O)c4cccnc4)cc3)cc21 (stereo not shown) [Example 51, 5-{4-[6-(4-Nicotinoylaminophenoxy)-1-methyl-1H-benzimidazole-2-ylmethoxy]benzyl}thiazolidine-2,4-dione] | – | 63.6 | – |
